From ChEMBL document CHEMBL4428063, “Novel Pyrimidine Toll-like Receptor 7 and 8 Dual Agonists to Treat Hepatitis B Virus” (J Med Chem, 2016) come the findings set out here.

Assay [1] concerns the target T1, Toll-like receptor 8 (Homo sapiens) (UniProt Q9NR97).
T1 sequence (whole entry): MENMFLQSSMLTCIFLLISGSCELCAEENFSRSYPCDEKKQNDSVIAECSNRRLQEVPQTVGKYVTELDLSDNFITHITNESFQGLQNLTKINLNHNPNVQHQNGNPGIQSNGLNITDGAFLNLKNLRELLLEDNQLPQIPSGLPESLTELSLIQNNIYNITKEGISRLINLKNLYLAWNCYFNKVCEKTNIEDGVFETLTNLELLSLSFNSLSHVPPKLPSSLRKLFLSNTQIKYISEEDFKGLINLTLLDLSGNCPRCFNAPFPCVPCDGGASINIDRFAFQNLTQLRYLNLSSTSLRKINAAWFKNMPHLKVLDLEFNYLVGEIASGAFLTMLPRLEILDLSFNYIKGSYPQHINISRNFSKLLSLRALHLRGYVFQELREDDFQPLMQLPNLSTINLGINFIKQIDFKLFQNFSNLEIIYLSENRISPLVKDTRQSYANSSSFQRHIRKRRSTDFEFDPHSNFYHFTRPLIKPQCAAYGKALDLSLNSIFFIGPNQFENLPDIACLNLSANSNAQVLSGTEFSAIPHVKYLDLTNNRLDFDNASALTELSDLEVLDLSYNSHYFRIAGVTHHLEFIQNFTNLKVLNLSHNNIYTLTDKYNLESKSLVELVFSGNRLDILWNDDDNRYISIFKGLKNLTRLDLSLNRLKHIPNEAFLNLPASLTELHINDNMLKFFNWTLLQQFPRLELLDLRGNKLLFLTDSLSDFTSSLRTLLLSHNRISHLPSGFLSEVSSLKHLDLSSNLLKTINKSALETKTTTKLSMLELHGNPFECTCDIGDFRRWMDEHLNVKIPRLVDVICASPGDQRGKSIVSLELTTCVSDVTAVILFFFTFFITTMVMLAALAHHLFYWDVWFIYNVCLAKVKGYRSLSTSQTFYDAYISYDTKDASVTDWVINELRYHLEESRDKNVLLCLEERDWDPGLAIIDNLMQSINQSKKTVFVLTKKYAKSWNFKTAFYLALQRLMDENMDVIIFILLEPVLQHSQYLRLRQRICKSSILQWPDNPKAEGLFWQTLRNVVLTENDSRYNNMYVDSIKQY
As to the kind of experiment: Agonist activity at human TLR8 expressed in HEK293 cells assessed as measured after 6 hrs by NF-kappaB luciferase reporter gene assay. It is filed as cell-based. (In general: In a reporter assay the amount or activity of a reporter protein is the signal.)

For assay [2], the target named is T2, Toll-like receptor 7 (Homo sapiens) (UniProt Q9NYK1).
T2 sequence (whole entry): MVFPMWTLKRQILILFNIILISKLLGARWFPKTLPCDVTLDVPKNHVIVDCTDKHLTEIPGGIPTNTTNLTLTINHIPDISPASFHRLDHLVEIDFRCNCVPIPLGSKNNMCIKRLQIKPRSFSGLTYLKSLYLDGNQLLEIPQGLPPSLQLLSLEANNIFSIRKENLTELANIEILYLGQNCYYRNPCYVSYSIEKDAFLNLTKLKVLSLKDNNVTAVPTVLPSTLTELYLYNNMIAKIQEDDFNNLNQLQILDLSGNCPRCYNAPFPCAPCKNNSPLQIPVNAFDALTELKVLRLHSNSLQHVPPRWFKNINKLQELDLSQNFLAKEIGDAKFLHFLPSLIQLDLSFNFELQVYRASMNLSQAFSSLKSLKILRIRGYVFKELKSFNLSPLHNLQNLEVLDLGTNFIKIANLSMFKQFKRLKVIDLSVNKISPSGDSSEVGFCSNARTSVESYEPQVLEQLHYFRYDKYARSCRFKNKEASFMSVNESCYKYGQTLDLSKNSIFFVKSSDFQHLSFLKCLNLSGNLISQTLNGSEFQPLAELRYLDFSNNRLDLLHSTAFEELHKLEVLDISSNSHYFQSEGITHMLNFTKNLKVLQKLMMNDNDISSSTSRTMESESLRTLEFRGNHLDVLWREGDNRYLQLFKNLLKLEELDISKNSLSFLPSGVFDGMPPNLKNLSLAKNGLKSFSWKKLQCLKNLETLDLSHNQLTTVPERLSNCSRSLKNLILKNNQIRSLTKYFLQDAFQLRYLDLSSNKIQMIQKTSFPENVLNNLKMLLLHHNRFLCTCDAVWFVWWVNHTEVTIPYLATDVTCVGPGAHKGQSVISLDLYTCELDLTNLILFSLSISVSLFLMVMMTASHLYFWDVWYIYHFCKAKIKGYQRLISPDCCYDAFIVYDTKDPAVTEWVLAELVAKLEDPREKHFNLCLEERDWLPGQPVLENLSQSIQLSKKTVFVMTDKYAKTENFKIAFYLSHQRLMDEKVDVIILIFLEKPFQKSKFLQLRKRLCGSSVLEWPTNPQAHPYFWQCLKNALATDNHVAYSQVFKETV
In words: Agonist activity at human TLR7 expressed in HEK293 cells measured after 6 hrs by NF-kappaB luciferase reporter gene assay. In kind it is cell-based.

In assay [3] the target is T2, Toll-like receptor 7 (Homo sapiens). In words: Activation of TLR7 in human PBMCs incubated for overnight duration followed by compound-treated cell supernatant conditioned media transfer to HCV1b transfected human HuH7-luc/neo replicon cells assessed as induction of INFalpha-mediated suppression of virus growth by firefly-luciferase reporter gene assay. (In antiviral work, replicon cells carry a viral genome segment that copies itself.)

The test system of assay [4] is HEK293. In words: Agonist activity at human TLR7-dLRR2 mutant expressed in HEK293 cells measured after 6 hrs by NF-kappaB luciferase reporter gene assay. It is filed as cell-based.

Take `CCCCNc1nc(N)ncc1OCc1cc(C)nn1C`: the LED turned out to be 0.92 µM in assay [1], 0.7 µM in assay [2] and 0.39 µM in assay [3].
As to `CCCCCNc1nc(N)ncc1OCC`, the LED is 3.2 µM in assay [1] and 6 µM in assay [2].
In the case of `CCCC[C@@H](CO)Nc1nc(N)ncc1OC`, the LED was determined as 0.39 µM in assay [1], 8.01 µM in assay [2] and 0.4 µM in assay [3].
On to `COc1cnc(N)nc1N[C@H](CO)CC(C)C`, for which the LED is 16 µM in assay [1], greater than 25 µM in assay [2] and 11 µM in assay [3].
On to `CCC[C@@H](CCO)Nc1nc(N)ncc1OC`, for which the LED in assay [1] turned out to be 1.4 µM; in assay [2], 7.3 µM; in assay [3], 0.8 µM.
For `CCCCNc1nc(N)ncc1OCc1csc(C)n1` the same measures were 0.74 µM, 0.29 µM and 0.07 µM.
As to `CCCCNc1nc(N)ncc1OCCC`, the LED in assay [1] turned out to be 4.5 µM; in assay [2], 6.2 µM; in assay [3], 4.8 µM.
`CCC[C@@H](CO)Nc1nc(N)ncc1OC`: the figures for the LED in assay [1], in assay [2] and in assay [3] were 0.25 µM, 8.4 µM and 0.4 µM, respectively.
For `CCCCNc1nc(N)ncc1OCc1nc2ccccc2s1`, the LED in assay [1] worked out at 2.6 µM; in assay [2], 0.28 µM; in assay [3] it was 0.11 µM.
On to `CCCCNc1nc(N)ncc1OCc1nn(C)c2ccccc12`, for which the LED came to 0.18 µM in assay [1], 0.014 µM in assay [2] and 0.011 µM in assay [3].
On to `CCCCNc1nc(N)ncc1OC(C)C`, for which the LED in assay [1] stood at 0.7 µM; in assay [2] it was 10 µM; in assay [3], 0.5 µM.
Regarding `CCC[C@H](CO)Nc1nc(N)ncc1OC`, the LED was 9 µM in assay [1] and greater than 25 µM in assay [2].
For `CCCCNc1nc(N)ncc1OCc1ncco1` the same measures were 3.6 µM and 2.87 µM.
Consider `CCCCNc1nc(N)ncc1OCc1nccc2ccccc12`, for which the LED in assay [1] came to 0.14 µM; in assay [2], 0.008 µM; in assay [3], 0.003 µM.
For the compound `CCCCNc1nc(N)ncc1OCc1cccnn1`, the LED in assay [1] is 0.83 µM; in assay [2], 0.52 µM; in assay [3], 0.12 µM.
For `COc1cnc(N)nc1N[C@H](CCO)CC(C)C` the same measures were 2.3 µM, 10.8 µM and 7.5 µM.
The like results for `CCCCNc1nc(N)ncc1OCc1c(C)noc1C` were, in that order, 1 µM, 3.1 µM and 0.38 µM.
The like results for `CCCCNc1nc(N)ncc1OCc1ccc2ccccc2n1` were, in that order, 0.89 µM, 0.3 µM and 0.09 µM.
On to `CCCCNc1nc(N)ncc1OCc1nc2ccccc2[nH]1`, for which the LED in assay [1] came to 0.65 µM; in assay [2], 0.032 µM; in assay [3], 0.012 µM.
Regarding `CCCCNc1nc(N)ncc1OCc1cnn(C)c1`, the LED in assay [1] worked out at 13.7 µM; in assay [2], 7 µM.
For the compound `CCCCNc1nc(N)nc(C)c1OCc1ccccc1`, the LED in assay [1] turned out to be 7.5 µM; in assay [2], 18 µM.
In the case of `COc1cnc(N)nc1NCCC1CC1`, the LED in assay [1] was 20.9 µM; in assay [2], greater than 25 µM; in assay [3], 6.8 µM.
For `CCC(C)[C@H](CCO)Nc1nc(N)ncc1OC` (some centres undefined), the LED amounted to 2.6 µM in assay [1], 10.4 µM in assay [2] and 2.2 µM in assay [3].
The like results for `C=CCNc1nc(N)ncc1OC` were, in that order, 8.5 µM, greater than 25 µM and 6.2 µM.
In the case of `CCCCNc1nc(N)ncc1OCC`, the figures for the LED in assay [1], in assay [2] and in assay [4] were 1.1 µM, 4.7 µM and 1.6 µM, respectively.
On to `COc1cnc(N)nc1NCCCC(F)(F)F`, for which the LED in assay [1] stood at 6.6 µM; in assay [2], 6.5 µM; in assay [3], 1.6 µM.
`CCCCNc1nc(N)ncc1OCc1nccc(OC)c1OC`: the LED in assay [1] stood at 0.6 µM; in assay [2], 0.13 µM; in assay [3], 0.022 µM.
The like results for `CCCCNc1nc(N)ncc1OCc1cnccn1` were, in that order, 2.28 µM, 0.51 µM and 0.16 µM.
The like results for `CC[C@H](C)CNc1nc(N)ncc1OC` were, in that order, greater than 25 µM, greater than 25 µM and greater than 24 µM.
For `CCCCNc1nc(N)ncc1OCc1nc(C)oc1C`, the LED in assay [1] was determined as 1.58 µM; in assay [2], 0.46 µM.
`CCCC(C)Nc1nc(N)ncc1OC` (racemic): the LED in assay [1] is 2.8 µM; in assay [2], greater than 25 µM; in assay [3], 1.7 µM.
Consider `CCCCNc1nc(N)ncc1OCc1cc2ccccn2n1`, for which the LED in assay [1] was 1.3 µM; in assay [2], 0.21 µM; in assay [3] it was 0.037 µM.
In the case of `CC[C@H](C)[C@@H](CO)Nc1nc(N)ncc1OC`, the LED was determined as 0.66 µM in assay [1], 17.8 µM in assay [2] and 1.7 µM in assay [3].
Turning to `CCCCNc1nc(N)ncc1OCc1ccccc1`, the LED in assay [1] was found to be 2.4 µM; in assay [2], 0.9 µM; in assay [3] it was 0.39 µM.
As for `CCCCNc1nc(N)ncc1OCCCc1ccccc1`, the LED turned out to be 7.9 µM in assay [1], 1.5 µM in assay [2] and 0.25 µM in assay [3].
